Experimental data published in ChEMBL document CHEMBL1135981, “Designing analogues of mini atrial natriuretic peptide based on structural analysis by NMR and restrained molecular dynamics” (J Med Chem, 2002).
pEC50: −log10 of the molar value.

Tested on: CHO
Experiment: Evaluated for Biological activity, 50% effective concentration determined by its ability to produce cGMP
Type: functional, cell-based
Conditions: Cricetulus griseus

## CC[C@H](C)[C@@H]1NC(=O)[C@H](CCCN=C(N)N)NC(=O)[C@H](CC(=O)O)NC(=O)[C@H](CCSC)NC(=O)[C@H](CCCN=C(N)N)NC(=O)CNC(=O)[C@@H](C)NC(=O)[C@H](Cc2ccccc2)NC(=O)[C@H](Cc2c[nH]cn2)NC(=O)[C@@H](NC(=O)[C@@H](N)CCSC)CSSC[C@@H](C(=O)N[C@@H](Cc2ccc(O)cc2)C(=O)N[C@@H](CCCN=C(N)N)C(N)=O)NC(=O)[C@H](CO)NC1=O
  pEC50: 9.75

## CC[C@H](C)[C@@H]1NC(=O)[C@H](CCCN=C(N)N)NC(=O)[C@H](CC(=O)O)NC(=O)[C@H](CCSC)NC(=O)[C@H](CCCN=C(N)N)NC(=O)[C@@H](C)NC(=O)CNC(=O)[C@H](Cc2ccccc2)NC(=O)[C@H](Cc2c[nH]cn2)NC(=O)[C@@H](NC(=O)[C@@H](N)CCSC)CSSC[C@@H](C(=O)N[C@@H](Cc2ccc(O)cc2)C(=O)N[C@@H](CCCN=C(N)N)C(N)=O)NC(=O)[C@H](CO)NC1=O
  pEC50: 8.42

## CC[C@H](C)[C@@H]1NC(=O)[C@H](CCCN=C(N)N)NC(=O)[C@H](CC(=O)O)NC(=O)[C@H](CCSC)NC(=O)[C@H](CCCN=C(N)N)NC(=O)[C@@H](C)NC(=O)[C@@H](C)NC(=O)[C@H](Cc2ccccc2)NC(=O)[C@H](Cc2c[nH]cn2)NC(=O)[C@@H](NC(=O)[C@@H](N)CCSC)CSSC[C@@H](C(=O)N[C@@H](Cc2ccc(O)cc2)C(=O)N[C@@H](CCCN=C(N)N)C(N)=O)NC(=O)[C@H](CO)NC1=O
  pEC50: 8.88
